One data set concerns NCI-H1975. Nature of the data set: Cytotoxicity against human NCI-H1975 cells assessed as inhibition of cell growth incubated for 24 hrs by CCK-8 assay. Particulars: NCI-H1975, 24 h. The class given is functional, cell-based. Background: Tetrazolium assays rely on reduction of a dye to a coloured formazan, in cell work by metabolically active cells.
Data set [1] has as its system RAW264.7. As to the kind of experiment: Antiinflammatory activity in LPS induced mouse RAW264.7 cells assessed as inhibition of NO production at 25 uM pretreated for 2 hrs followed by LPS stimulation and measured after 24 hrs by Griess reagent based assay relative to control. Format: functional. Particulars: time 26 hrs. (Nitrite, measured by Griess reagent, commonly stands in for NO production.)

Data set [2] is described as follows: Cytotoxicity against mouse RAW264.7 cells assessed as reduction in cell viability incubated for 2 hrs by MTT assay. Format: toxicity, cell-based.
Data set [3] concerns RAW264.7. As to the kind of experiment: Antiinflammatory activity in LPS induced mouse RAW264.7 cells assessed as inhibition of NO production pretreated for 2 hrs followed by LPS stimulation and measured after 24 hrs by Griess reagent based assay. The class given is functional, cell-based.

SMILES strings stand for the structures.

For the molecule `COc1ccc(-c2cc3c(c(=O)o2)C[C@H]2[C@@](C)(CC[C@@]45O[C@@](O)(OC4(C)C)[C@H](O)C[C@]25C)O3)cc1`, the IC50 – broadly, the concentration at which inhibition is half-maximal – in the data set with NCI-H1975 was above 80 µM. Also, in the data set on RAW264.7 [1], the inhibition (commonly how much of the control response was suppressed) at 25 µM was 0%.
`COc1ccc(-c2cc3c(c(=O)o2)C[C@]2(O)[C@@]45CO[C@@H](CC4=O)C(C)(C)[C@]5(O)CC[C@@]2(C)O3)cc1OC`: the cytotoxic concentration (CC50) (in general, the concentration giving 50% cytotoxicity) at 2 h in data set [2] is above 50 µM. The IC50 with NCI-H1975 is above 80 µM; with RAW264.7 [3] it was 21 µM. The inhibition at 25 µM in the data set on RAW264.7 [1] came out at 62%.
Regarding `COc1ccc(-c2cc3c(c(=O)o2)C[C@]24O[C@]25[C@H](C)C[C@@H](O)C(C)(C)[C@]5(O)CC[C@@]4(C)O3)cc1`, the IC50 in the data set on NCI-H1975 is above 80 µM. Also, in the data set on RAW264.7 [1], the inhibition at 25 µM worked out at 6.3%.
Take `COc1ccc(-c2cc3c(c(=O)o2)C[C@]2(O)[C@@]4(C)[C@H](O)C[C@@H](OC(C)=O)C(C)(C)[C@]4(O)CC[C@@]2(C)O3)cc1`: in the data set with NCI-H1975, the IC50 was above 80 µM. The inhibition at 25 µM in the data set with RAW264.7 [1] was found to be 2.5%.
As for `COc1cc(-c2cc3c(c(=O)o2)C[C@]2(O)[C@@]45CO[C@@H](CC4=O)C(C)(C)[C@]5(O)CC[C@@]2(C)O3)cc2c1OCO2`, the IC50 with NCI-H1975 came to 15 µM. Further, the inhibition at 25 µM with RAW264.7 [1] was found to be 11%.
For `COc1cc(-c2cc3c(c(=O)o2)C[C@]2(O)[C@@]45CO[C@@H](CC4=O)C(C)(C)[C@]5(O)CC[C@@]2(C)O3)cc(OC)c1OC` the same measures were above 80 µM and 22%.
Regarding `COc1ccc(-c2cc3c(c(=O)o2)C[C@H]2[C@@](C)(CC[C@@]4(O)C(C)(C)C(=O)C=C[C@]24C)O3)cc1`, the half-inhibitory concentration (IC50) in the data set on NCI-H1975 is above 80 µM. Also, the inhibition at 25 µM in the data set with RAW264.7 [1] amounted to 35%.
As for `COc1ccc(-c2cc3c(c(=O)o2)C[C@]2(O)[C@@]45O[C@]4(CC[C@@]2(C)O3)C(C)(C)[C@H](O)C[C@H]5C)cc1`, in the data set on NCI-H1975, the IC50 was 67 µM. Besides, the inhibition at 25 µM in the data set on RAW264.7 [1] turned out to be 32%.
For `COc1ccc(-c2cc3c(c(=O)o2)C[C@H]2[C@@](C)(CC[C@@]4(O)C(C)(C)OC(=O)[C@H](O)C[C@]24C)O3)cc1`, the IC50 with NCI-H1975 was above 80 µM. In the data set with RAW264.7 [1], the inhibition at 25 µM was 7.6%.
Take `COc1ccc2c(c1)c(CC(=O)O)c(C)n2C(=O)c1ccc(Cl)cc1` [INDOMETHACIN]: the 50% cytotoxic concentration (CC50) at 2 h in data set [2] was above 50 µM. The IC50 with RAW264.7 [3] is 24 µM. Besides, in the data set on RAW264.7 [1], the inhibition at 25 µM turned out to be 57%.

The record behind these values is ChEMBL document CHEMBL5385923, “HPPO-Derived Meroterpenoids from the Marine-Derived Fungus Penicillium sp. SCSIO 41691” (J Nat Prod, 2024).
